Measured values as given in US4985558A, “1,4-dihydropyridine derivative” (Nikken Chemicals Co., Ltd., priority 1988, dated 1991).
Several values for one entry are separate records, joined by “and”; a condition that tells them apart may be missing. Equal values may be shown once.

Experiments:
[1] = test system: rat rectum smooth muscle; experiment: Inhibitory effects on potassium contracture in rat rectum smooth muscle; assay type: cell-based; conditions: 5 min, K contraction 5.6 to 56.0 mM, read-out: Inhibition ratio; for inhibition at 0.1 µM: 10^-7 M; for inhibition at 0.01 µM: 10^-8 M
Method: Rat rectum (about 1.5 cm) was isolated and suspended in a Magnus tube. A Locke solution was employed as the nutrient solution, and a contraction of the intestinum rectum was caused by changing the potassium (K) concentration of this solution from 5.6 mmol (mM) to 56.0 mM. This contraction was a contraction through a membrane dependent Ca-channel mediated contraction based on depolarization by a K concentration change. The contraction was recorded by an FD-transducer and polygraph. The compounds of the present invention were permitted to act 5 minutes before changing the K concentration, and simultaneously with changing the K concentration. […] A judgement was made 5 minutes after changing the K concentration, and the difference in contraction before the concentration change was indicated as an inhibition % value. Verapamil and nicardipine were employed as the positive control compound .

[2] = test system: ICR mice; experiment: acute toxicity test; conditions: mouse, in vivo;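 also: intraperitoneal dosing with deaths counted over 10 days of observation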
Method: Male 6-week-old ICR mice were divided into groups of 2 to 5 mice per group. […] The drugs to be tested were administered in varying amounts of 250 to 2000 mg/kg to 5 or 7 groups (a geometrical series of .cent.2), at a dose volume of 10 ml/kg. In the Table, the respective compounds have the same meanings as described above.

[3] = test system: spontaneously hypertensive rats (SHR); conditions: rat, in vivo, ip, 100 mg/kg
Method: The systolic blood pressure was measured by using spontaneously hypertensive rats (SHR), which are a model of hypertension when examine the hypotensive activities of the compounds of the present invention and the positive Control compound. The rats were warmed for 5 minutes in a warming box at 55° C., and their blood pressure then measured by a tail cuff plethysmograph. The compounds of the present invention were administered singly and intraperitoneally at a dose of 100 mg/kg and the positive Control compound was administered singly and intraperitoneally at a dose of 10 mg/kg. […] Blood pressure measurements were taken before administration and 60 minutes after administration. Nicardipine was employed as the positive Control compound.

[4] = test system: vincristine (VCR)-resistant mouse leukemia (P388/VCR) cells; experiment: Antitumor agent potentiating effect in vincristine-resistant tumor bearing mouse (Example 11, i.p. 5 days); assay type: in vivo
Method: (§1) The potentiating effect of the antitumor agent (T/V) % was determined according to the formula shown below. Verapamil was employed as the positive Control compound. […] In the Tables, Compound 1 is the compound obtained in Example 1, Compound 2 that obtained in Example 2, Compound 3 that obtained in Example 3, Compound 4 that obtained in Example 4, and Compound 5 that obtained in Example 5. [formula]

[5] = test system: vincristine (VCR)-resistant mouse leukemia (P388/VCR) cells; experiment: Antitumor agent potentiating effect in vincristine-resistant tumor bearing mouse (Example 12, i.p.); assay type: in vivo
Method: as §1
The potentiating effect of the antitumor agent (T/V) % was determined as described above (Example 11). Nicardipine was employed as the positive Control compound, and was administered intraperitoneally for 10 days. […] In the Tables, Compound 6 is the compound obtained in Example 6, Compound 7 that obtained in Example 7, and Compound 8 that obtained in Example 8.

[6] = compound 100 mg/kg i.p. + VCR 30 μg/kg i.p.
[7] = compound alone 100 mg/kg i.p., no VCR

| SMILES | inhibition at 0.1 µM [1] [%] | inhibition at 0.01 µM [1] [%] | Mortality [2] | Blood pressure change [3] [mmHg] | Systolic Blood Pressure 60 minutes after administration [3] [mmHg] | Potentiating effect T/V [4, 6] [%] | Survival Days (Mean ± SD) [4, 6] [days] | Survival ratio T/C [4, 6] [%] | Survival Days (Mean ± SD) [4, 7] [days] | Survival ratio T/C [4, 7] [%] | Potentiating effect T/V [5, 6] [%] | Survival Days (Mean ± SD) [5, 6] [days] | Survival ratio T/C [5, 6] [%] | Survival Days (Mean ± SD) [5, 7] [days] | Survival ratio T/C [5, 7] [%] |
| --- | --- | --- | --- | --- | --- | --- | --- | --- | --- | --- | --- | --- | --- | --- | --- |
| CC1=C(C(=O)OCc2cccc(C)n2)C(C2=COCCO2)C(C(=O)OCc2cccc(C)n2)=C(C)N1 [Compound 2] | -2.1 | -5.6 | 0/4 and 1/5 and 0/5 | -15 | 204 | 130 | 13.7 ± 1.0 | 140 | 10.3 ± 0.5 | 105 | – | – | – | – | – |
| CC1=C(C(=O)OCc2ccccn2)C(C2=COCCO2)C(C(=O)OCc2ccccn2)=C(C)N1 [Compound 1, bis(2-pyridylmethyl) 4-[2-(5,6-dihydro-p-dioxinyl)]-2,6-dimethyl-1,4-dihydropyridine-3,5-dicarboxylate] | 11.2 | – | 0/2 | – | – | 116 | 14.5 ± 1.6 | 121 | 12.2 ± 0.8 | 102 | – | – | – | – | – |
| CC1=C(C(=O)OCc2ccccn2)C(C2=CSCCS2)C(C(=O)OCc2ccccn2)=C(C)N1 [Compound 6, bis(2-pyridylmethyl) 4-[2-(5,6-dihydro-1,4-dithiinyl)]-2,6-dimethyl-1,4-dihydropyridine-3,5-dicarboxylate] | – | – | 0/2 and 0/3 | -30 | 191 | – | – | – | – | – | 125 | 14.2 ± 1.2 | 138 | 10.8 ± 0.8 | 105 |
| CC1=C(C(=O)OCCCc2cccnc2)C(C2=COCCO2)C(C(=O)OCCCc2cccnc2)=C(C)N1 [Compound 3, bis[3-(3-pyridyl)propyl]4-[2-(5,6-dihydro-p-dioxinyl)]-2,6-dimethyl-1,4-dihydropyridine-3,5-dicarboxylate] | -4.2 | -11.5 | 4/4 and 3/4 and 1/5 and 2/5 and 0/5 | – | – | 130 | 13.7 ± 1.5 | 140 | 10.3 ± 0.5 | 105 | – | – | – | – | – |
